The record followed here is patent US6669925B1, “Sigma-2 receptors as biomarkers of tumor cell proliferation” (Wake Forest University, priority 2000, dated 2003).

Where two headings read alike, the source gives them in different places.

For one test, the target named is T1, σ2 receptors (Rattus norvegicus, UniProt Q5U3Y7).
T1 construct: from tissue; host or cells: rat liver homogenate (per the earlier reading's assay description)
T1 sequence (Q5U3Y7 1-176): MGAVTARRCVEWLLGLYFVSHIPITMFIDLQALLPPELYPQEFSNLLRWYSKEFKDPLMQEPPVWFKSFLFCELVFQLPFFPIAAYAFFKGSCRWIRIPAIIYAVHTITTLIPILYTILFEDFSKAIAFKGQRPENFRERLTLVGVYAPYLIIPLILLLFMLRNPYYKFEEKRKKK
Put plainly: In vitro binding to σ2 receptors: inhibition of [3H]DTG binding to rat liver homogenates. The source says: (§1) The ability to bind to sigma-1 or sigma-2 can be measured using methods currently known to those of skill in the art or using those techniques described in U.S. application Ser. No. 60/013717, filed Mar. 30, 1996; in U.S. application Ser. No. 09/142935, filed Sep. 17, 1998; or in U.S. application Ser. No. 09/528398, filed Mar. 20, 2000.

The target in another test is T2, σ1 receptors (Cavia porcellus, UniProt Q60492).
T2 construct: from tissue; host or cells: guinea pig brain homogenate (per the earlier reading's assay description)
T2 sequence (Q60492 whole entry): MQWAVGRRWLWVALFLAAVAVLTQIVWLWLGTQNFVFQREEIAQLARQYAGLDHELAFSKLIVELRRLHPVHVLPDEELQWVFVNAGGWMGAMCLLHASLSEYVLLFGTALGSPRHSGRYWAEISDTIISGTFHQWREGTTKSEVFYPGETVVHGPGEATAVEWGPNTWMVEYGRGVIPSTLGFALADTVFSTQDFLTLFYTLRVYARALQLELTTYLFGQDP
The test is described as follows: In vitro binding to σ1 receptors: inhibition of [3H](+)-pentazocine binding to guinea pig brain homogenates.
Excerpt: as §1

The mark [1] stands for this setting: Table I, guinea pig brain homogenates (n = 3-5), read-out: σ1: Ki for inhibition of the binding of [3H](+)-pentazocine.
[2] abbreviates: Table II, footnote a not given, read-out: σ1 (binding to σ1 receptors).
The mark [3] stands for this setting: Table II, footnote b not given, read-out: σ2 (binding to σ2 receptors).

With `COc1ccc(C)cc1NC(=O)OC1CC2CCCC(C1)N2CCCc1ccc(N)cc1` (stereo not shown), on σ2 receptors, the Ki came out at 0.0105 µM.

In the case of `COc1ccc(C)cc1NC(=O)OC1CC2CCCC(C1)N2CCCCCCCc1ccccc1` (stereo not shown) [Compound 6f], the results for the Ki at σ1 receptors (setting [1]) and on σ2 receptors were 0.23 ± 0.0286 µM and 0.0076 ± 0.00018 µM, respectively.

For the compound `COc1ccc(C)cc1NC(=O)OC1CC2CCCC(C1)N2CCCCc1ccccc1` (stereo not shown) [Compound 6c], the Ki on σ1 receptors was 0.0655 ± 0.0043 µM; at σ2 receptors, 0.00292 ± 0.00021 µM.

Turning to `COc1ccc(C)cc1NC(=O)OC1CC2CCCC(C1)N2CCc1ccc(N)cc1` (stereo not shown) [Compound 7c], the Ki on σ1 receptors (setting [2]) is above 1 µM; at σ2 receptors, 0.00778 ± 0.00061 µM.

For `COc1ccc(C)cc1NC(=O)OC1CC2CCCC(C1)N2CCc1ccc(I)cc1` (stereo not shown) [Compound 7a], the figures for the Ki at σ1 receptors (setting [2]) and at σ2 receptors (setting [3]) were 0.175 ± 0.00671 µM and 0.141 ± 0.00836 µM, respectively.

In the case of `COc1ccc(C)cc1NC(=O)OC1CC2CCCC(C1)N2CCCc1ccccc1` (stereo not shown) [Compound 6b], the Ki at σ1 receptors came out at 0.0729 ± 0.0016 µM; on σ2 receptors, 0.00197 ± 0.00012 µM.

As to `COc1ccc(C)cc1NC(=O)OC1CC2CCCC(C1)N2CCc1ccc(NC(=O)OC(C)(C)C)cc1` (stereo not shown) [Compound 7b], the Ki at σ1 receptors (setting [2]) and at σ2 receptors (setting [3]) was above 1 µM throughout.

As to `COc1ccc(C)cc1NC(=O)OC1CC2CCCC(C1)N2C/C=C/c1ccc(N)cc1` (stereo not shown), on σ2 receptors, the Ki came to 0.0036 µM.

On to `COc1ccc(C)cc1NC(=O)OC1CC2CCCC(C1)N2CCCCCCc1ccccc1` (stereo not shown) [Compound 6e], for which the Ki amounted to 0.214 ± 0.0235 µM on σ1 receptors (setting [1]) and 0.00761 ± 0.00041 µM on σ2 receptors.

`COc1ccc(C)cc1NC(=O)OC1CC2CCCC(C1)N2CCc1ccccc1` (stereo not shown) [Compound 6a]: the Ki at σ1 receptors came out at 0.0599 ± 0.0046 µM; at σ2 receptors it was 0.0012 ± 0.0001 µM.

In the case of `COc1ccc(C)cc1NC(=O)OC1CC2CCCC(C1)N2CCCCCc1ccccc1` (stereo not shown) [Compound 6d], the results for the Ki at σ1 receptors and on σ2 receptors were 0.0173 ± 0.0012 µM and 0.00182 ± 0.00019 µM, respectively.

`COc1ccc(C)cc1NC(=O)OC1CC2CCCC(C1)N2Cc1ccccc1` (stereo not shown) [—, reference compound]: the values for the Ki at σ1 receptors and on σ2 receptors were 0.0925 ± 0.011 µM and 0.00306 ± 0.00083 µM, respectively.
